Converted amounts (≈) assume the structure as drawn. Read-outs that look alike come from different tables or passages of the source.
How the values were obtained:
[1] = system: Lemna minor; experiment: L. minor growth inhibition test; conditions: for EC50: 168 h, read-out: EC50 L. minor (with confidence interval 2.5–97.5%), growth rate inhibition by frond area, 7 days; for toxicity to L. minor: highest tested concentration (100 mg L^−1)
Description: (§1) All tests were carried out in accordance with the OECD or ISO guidelines. In general the experimental part was divided into three main steps: (i) determination of the toxicity of the native forms of pharmaceuticals (their racemic mixtures), (ii) toxicity evaluation of the selected TPs of these pharmaceuticals, and (iii) preliminary toxicity assessment of the enantiomers of selected pharmaceuticals. For each assay, range-finding tests were conducted, in order to determine the range of concentrations for the definitive tests. The main tests were repeated three times in at least two parallel replicates, with a minimum of five concentrations for native forms of the selected pharmaceuticals (including their enantiomers). The exact number of replicates and concentrations tested was included in the description of each test. […] However, TPs were tested in a different manner; first, the tests were carried out at the limit concentration of 100 mg L^−1. […] Such approach was applied in order to observe the relative toxicity of the selected TP and its native form.
(§2) Dose-response curves were fitted using a linear logistic or logistic model (the model giving the best fit was chosen) (https://cran.r-project.org/web/packages/drfit/drfit.pdf). The mathematic formulas applied for this purpose are presented and described in the Supplementary Material. The EC50 values were given since log EC50 is a model parameter in the logistic as well as in linear logistic model.
One week before the assay, the inoculum cultures were prepared; eight healthy plants were placed into a new portion of the medium. Two days before the test, the plants were transferred to a fresh medium, in order to supplement nutrients and to eliminate plant metabolites. The experiments were performed in six-well plates under the conditions described above. The pH value of the Steinberg medium and all solutions was 5.5 (± 0.5). Every test included six different concentrations of compound and six controls in three replicates. The test started with one plant consisting of three fronds and the measured endpoint was the inhibition of growth rate determined by comparing the frond area (mm^2) for the treated plants and untreated controls.

[2] = system: Raphidocelis subcapitata; experiment: R. subcapitata reproduction (growth) inhibition test; assay type: cell-based; conditions: Raphidocelis subcapitata; for inhibition at 100 µg/mL / inhibition at 5 µg/mL: read-out: Growth inhibition of R. subcapitata; for EC50: 72 h, growth inhibition by cell counts, read-out: EC50 R. subcapitata (with confidence interval 2.5–97.5%)
Description: as §1, §2
Test organisms were provided from Algal Culture Collection (Universität Göttingen, Germany). […] The light-dark cycle was different from the OECD guidelines, and it was introduced to imitate natural growth conditions. In order to ensure that the algae are in the exponential growth phase when used to inoculate the test solutions, the stock culture was diluted three times a week. The test was carried out in 25 mL suspension cell culture flasks (Nunc) (working volume 10 mL). All operations were performed under sterile conditions. The initial cell concentration was 5 × 10^4 cells mL^−1. Eight different concentrations of every compound in three replicates and a minimum of six controls were used in each test. […] The test flasks were incubated on a shaker with a speed of approx. 75 rpm at the temperature and light conditions described above. Growth inhibition was calculated using the cell counts of the treated samples in relation to the untreated controls after 72 h of exposure. The cells were counted with the use of CASY TT Cell counter & analyzer.

[3] = system: Vibrio fischeri; experiment: microbe, parasite or virus in culture; assay type: cell-based; conditions: for EC50: 0.5 h, luminescence inhibition, 30 min, 15 °C, read-out: EC50 V. fischeri (with confidence interval 2.5–97.5%)
Description: (§3) Stock solutions and dilutions were prepared in 2% NaCl in 0.02 M phosphate buffer, pH 7. The freeze-dried bacteria were rehydrated prior to testing in a reactivation solution. Culture suspensions and diluted samples were pre-incubated at 15 °C for 15 min. After the initial luminescence was measured, 0.5 mL of the culture suspension was mixed with the same volume of a diluted sample. The final bioluminescence was measured after 30 min. Incubation was kept at 15 °C (LUMIStox 300 meter, Dr. Lange GmbH, Berlin, Germany). The relative toxicity of the samples was expressed as a percentage of luminescence inhibition compared to the controls.
as §3, with “m,” for “meter,”

[4] = system: Daphnia magna; experiment: D. magna acute immobilization test; assay type: in vivo; conditions: Daphnia magna; for mortality at 100 µg/mL: concentration 100 mg L^−1; for EC50: immobilization, 48 h, read-out: EC50 D. magna (with confidence interval 2.5–97.5%); for mortality at 40 µg/mL / mortality at 70 µg/mL: read-out: Immobilization
Description: as §1, §2
Five pre-fed test organisms were incubated with the studied compounds diluted in 10 mL of test media in glass test vessels at 20 °C (± 1 °C) in darkness for 48 h. Each test consisted of a control and five different concentrations of the studied compound in four parallel replicates. In order to achieve a full dose-response relationship, the concentration series covered the range of 0–100% immobilization. The number of immobilized or dead organisms was checked after 24 and 48 h. The negative effect of exposure to the tested compounds was expressed by the number of immobilized organisms compared to the controls.

[5] = system: Arthrobacter globiformis; experiment: A. globiformis dehydrogenase inhibition test (version without soil); conditions: read-out: EC50 A. globiformis
Description: as §1
The test strain was obtained from the German Collection of Microorganisms (DSMZ). A version of the test without soil was performed. Bacteria was grown in a sterile medium containing 10 g L^−1 peptone from casein, 5 g L^−1 yeast extract, 5 g L^−1 glucose, and 5 g L^−1 NaCl. For the test, the medium was diluted in a ratio of 1:3 in water. The inoculum was the bacteria in a log-growth phase. Cell density was adjusted to 1 × 10^8 cells mL^−1, which corresponds to an optical density (OD600nm) of 0.4. The test was performed in 24-well microplates. Each well contained 1 mL of solution of the tested compound in water and 1 mL of bacterial inoculum. Next, the plates were incubated for 2 h at 30 °C on a horizontal shaker with a speed of 100 rpm. To each well, a portion of 0.6 mL of the redox active dye resazurine (45 mg L^−1) dissolved in buffer was added. The microplates were further incubated for 1 h (30 °C, 100 rpm). To stop the reduction process, the plates were centrifuged at 3600g for 10 min. Aliquots (300 μl) of supernatant from each well were immediately transferred to the wells of a 96-well microplate in triplicates. Finally, the dehydrogenase activity was determined by measuring the formation of resorufin from resazurine using a fluorimeter ([…]). Dehydrogenase inhibition was calculated using Eq. 1.
where FBTS is the measured fluorescence of the blank (medium) with the tested substance, FTS is the measured fluorescence of the sample, FBNC is the measured fluorescence of the blank, and FNC is the measured fluorescence of the negative control (with bacteria).

[6] = system: aquatic organisms; conditions: for the organisms named in the sentence
[7] = Lemna minor, read-out: Growth inhibition of L. minor
[8] = Aliivibrio fischeri, concentration 100 mg L^−1, read-out: Luminescence inhibition
[9] = Aliivibrio fischeri, read-out: Luminescence inhibition

`NC(=O)N1c2ccccc2C2OC2c2ccccc21` (stereo not shown) [CRB-Ep, Carbamazepine 10,11-epoxide] showed an inhibition at 50 µg/mL [1, 7] of 32%, an inhibition at 100 µg/mL ([2]; concentration 100 mg L^−1) of 37% and an inhibition at 100 µg/mL [3, 8] of 30%. The mortality at 100 µg/mL [4] was 0%.

`CC(C)Cc1ccc([C@H](C)C(=O)O)cc1` [IBU Isomer S, S-ibuprofen] gave an EC50 ([1]; Lemna minor) of 26.3 µg/mL (≈ 128 µM), an EC50 [2] of 26.6 µg/mL (≈ 129 µM) and an EC50 [4] of 63.1 µg/mL (≈ 306 µM).

`CC(C)Cc1ccc(C(C)C(=O)O)cc1` (stereo not shown) [IBU, Ibuprofen] was tested, and the EC50 ([1]; Lemna minor) was 13.2 µg/mL (≈ 64.2 µM), the inhibition at 15 µg/mL [1, 7] was 54% and the EC50 [2] was 93.3 µg/mL (≈ 452 µM). It also gave an inhibition at 100 µg/mL ([2]; concentration 100 mg L^−1) of 52%, an inhibition at 10 µg/mL ([3]; Aliivibrio fischeri, concentration 10 mg L^−1, read-out: Luminescence inhibition) of 42% and a mortality at 50 µg/mL ([4]; concentration 50 mg L^−1) of 52%. It also gave an EC50 [4] of 50.1 µg/mL (≈ 243 µM) and an EC50 [5] of over 100 µg/mL.

With `COCCc1ccc(OCC(O)CNC(C)C)cc1` (stereo not shown) [MET, Metoprolol] the EC50 ([1]; Lemna minor) was over 100 µg/mL, the inhibition at 100 µg/mL [1, 7] was 5% and the EC50 [2] was 35.6 µg/mL (≈ 133 µM). It also gave an inhibition at 100 µg/mL ([2]; concentration 100 mg L^−1) of 90%, an EC50 ([3]; Aliivibrio fischeri) of over 100 µg/mL and an inhibition at 100 µg/mL [3, 8] of 3%. It also gave a mortality at 100 µg/mL [4] of 4%, an EC50 [4] of over 100 µg/mL and an EC50 [5] of over 100 µg/mL.

For `CC(C)NCC(O)COc1ccc(CC(=O)O)cc1` (stereo not shown) [MET-ACID, Metoprolol acid], the inhibition at 100 µg/mL [1, 7] was 5%, the “toxicity to L. minor” value [1] was “non-toxic” and the inhibition at 100 µg/mL ([2]; concentration 100 mg L^−1) was 0%. For the same compound, the inhibition at 100 µg/mL [3, 8] was 0% and the mortality at 100 µg/mL [4] was 0%.

In the case of `CC(=O)Nc1ccc(S(=O)(=O)Nc2cc(C)on2)cc1` [N4-SMZ, N^4-Acetylsulfamethoxazole], the inhibition at 3 µg/mL [1, 7] is reported as 17%, the inhibition at 5 µg/mL [2] is reported as 27% and the “toxic effect / risk to V. fischeri” value [3] is reported as “negligible”. It also gave an inhibition at 50 µg/mL [3, 9] of 8% and a mortality at 40 µg/mL [4] of 0%.

`CC(C(=O)O)c1ccc2cc(O)ccc2c1` (stereo not shown) [O-DES-NAP, O-Desmethylnaproxen] was tested, and the inhibition at 25 µg/mL ([3]; Aliivibrio fischeri, concentration 25 mg L^−1, read-out: Luminescence inhibition) was 20% and the mortality at 70 µg/mL ([4]; concentration 70 mg L^−1) was 0%.

`CN(C)CC1CCCCC1(O)c1cccc(O)c1` (stereo not shown) [O-DES-TRA, O-Desmethyltramadol] was tested, and the inhibition at 100 µg/mL [1, 7] was 0%, the “toxicity to L. minor” value [1] was “non-toxic” and the inhibition at 100 µg/mL [2] was 35%. The inhibition at 100 µg/mL [3, 9] was 0% and the mortality at 70 µg/mL [4] was 8%.

For `Cc1cc(NS(=O)(=O)c2ccc(N)cc2)no1` [SMZ, Sulfamethoxazole], the inhibition at 3 µg/mL [1, 7] was 49%, the inhibition at 5 µg/mL ([2]; concentration 5 mg L^−1) was 43% and the “classification on the basis of EC50 values (EC 93/67/EEC)” value [6] was “toxic to aquatic organisms (1–10 mg L^−1 are “toxic to aquatic organisms”)”. The EC50 ([3]; Aliivibrio fischeri) was 51.8 µg/mL (≈ 204 µM), the inhibition at 50 µg/mL ([3]; Aliivibrio fischeri, concentration 50 mg L^−1, read-out: Luminescence inhibition) was 46% and the mortality at 40 µg/mL ([4]; concentration 40 mg L^−1) was 48%. It also gave an EC50 [4] of 42.7 µg/mL (≈ 169 µM) and an EC50 [5] of over 100 µg/mL.

— PMC7332481, “Ecotoxicity screening evaluation of selected pharmaceuticals and their transformation products towards various organisms” (Environmental Science and Pollution Research International, 2020)
